# Assay results taken from PMC8401404 (Molecules, 2021).
# Counter-ions that a name gives are not always drawn.
# Columns and labels:
# [1] = system: S. cerevisiae ATCC 7752; assay: Broth microdilution testing (CLSI); type: cell-based, Saccharomyces cerevisiae; settings: Saccharomyces cerevisiae, ATCC7752; broth microdilution, 16–24h at 37 °C; read-out: MIC S. cerevisiae ATCC 7752
# Description: (§1) Broth microdilution testing was performed according to CLSI (Clinical Laboratory Standards Institute) guidelines. MIC (minimal inhibitory concentration) value was defined as the last tested concentration of compound at which there is no visible growth of bacteria. […] Clinical and Laboratory Standards Institute (CLSI) guidelines.
# [2] = system: E. coli ATCC 25922; assay: Broth microdilution testing (CLSI); type: cell-based, Escherichia coli; settings: Escherichia coli, ATCC25922; broth microdilution, 16–24h at 37 °C; read-out: MIC E. coli ATCC 25922
# Description: as §1
# [3] = system: S. aureus ATCC 29213; assay: Broth microdilution testing (CLSI); type: cell-based, Staphylococcus aureus; settings: Staphylococcus aureus, ATCC29213, broth microdilution, 16–24h at 37 °C; read-out: MIC S. aureus ATCC 29213
# Description: as §1
melting point [°C],MIC [1] [µM],MIC [2] [µM],MIC [3] [µM],Structure (SMILES)
> 270,–,–,–,"CC(C)NC(=N)c1ccc2[nH]c(-c3ccc(-c4ccc([N+](=O)[O-])cc4)o3)nc2c1 (as salt: hydrochloride) [Compound 11, 2-[5-(4-Nitrophenyl)furan-2-yl]-5(6)-N-isopropilamidinobenzimidazole hydrochloride]"
–,> 64,4,2,"CC1(C)S[C@@H]2[C@H](NC(=O)[C@H](N)c3ccccc3)C(=O)N2[C@H]1C(=O)O [Ampicillin, reference compound]"
–,> 64,< 0.125,16,"CC(C)(O/N=C(\C(=O)N[C@@H]1C(=O)N2C(C(=O)[O-])=C(C[n+]3ccccc3)CS[C@H]12)c1csc(N)n1)C(=O)O [Ceftazidime, reference compound]"

# More lines, now with the values behind:
Structure (SMILES),melting point [°C],MIC [1] [µM],MIC [2] [µM],MIC [3] [µM]
"CC(C)NC(=N)c1ccc2nc(-c3ccc(-c4ccc([N+](=O)[O-])cc4)o3)sc2c1 (as salt: hydrochloride) [Compound 5, 2-[5-(4-Nitrophenyl)furan-2-yl]-6-N-isopropilamidinobenzothiazole hydrochloride]",201 to 206,–,–,–
"CC(C)NC(=N)c1ccc2nc(-c3ccc(-c4ccc(Cl)cc4)o3)sc2c1 (as salt: hydrochloride) [Compound 8, 2-[5-(4-Chlorophenyl)furan-2-yl]-6-N-isopropilamidinobenzothiazole hydrochloride]",204 to 208,–,–,–
"O=[N+]([O-])c1ccc(-c2ccc(-c3nc4cc(C5=NCCN5)ccc4[nH]3)o2)cc1 (as salt: hydrochloride) [Compound 12, 5(6)-(4,5-Dihydro-1H-imidazol-2-yl)-2-[5-(4-nitrophenyl)furan-2-yl]benzimidazole hydrochloride]",> 270,–,–,–
"CC(C)NC(=N)c1ccc2[nH]c(-c3ccc(-c4ccc(Cl)cc4)o3)nc2c1 (as salt: hydrochloride) [Compound 14, 2-[5-(4-Chlorophenyl)furan-2-yl]-5(6)-isopropilamidinobenzimidazole hydrochloride]",242 to 246,–,–,–
